Assay results published in patent publication EP0745595A1, “3-(3-Aryloxyphenyl)-1-(substituted methyl)-s-triazine-2,4,6-oxo or thiotrione herbicidal agents” (American Cyanamid Company, priority 1995, dated 1996).

Columns and labels:
Type in all cases: in vivo
[1] = system: SETARIA VIRIDIS, (L) BEAU; assay: Postemergence herbicidal evaluation, SETVI (Foxtail, Green); set-up: key to SETVI rating / Herbicidal effect rating, SETVI / SETVI: 0-9 visual rating scale vs untreated control
How it was run: (§1)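 Visual 0–9 scores reflect stand, vigor, malformation, size, chlorosis and overall appearance relative to control, taken 4–5 weeks after spraying two-week-old seedlings with about 0.125–0.500 kg/ha compound in acetone/water/TWEEN 20.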

IPOMOEA SPP. = assay: Postemergence herbicidal evaluation, IPOSS (Morningglory spp.); settings: for IPOSS, herbicide rating (0-9): rated four to five weeks after treatment, averaged
How it was run: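 Seedlings of morningglory (Ipomoea spp.) were raised in jiffy flats for roughly two weeks. They were then sprayed postemergence through a nozzle at 40 psi with test compound dispersed in 50/50 acetone/water containing 0.5% TWEEN®20 surfactant. Plants were kept on greenhouse benches under standard care and visually rated 0-9 against controls four to five weeks after treatment.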

CHENOPODIUM ALBUM, L. [2] = assay: Preemergence herbicidal evaluation, CHEAL (Lambsquarters, Common); settings: for CHEAL herbicidal rating: rated four to five weeks after treatment
How it was run: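 Greenhouse preemergence test; treated soil cups received compound in aqueous acetone (about 0.125 to 0.50 kg/ha) right after sowing and were assessed visually 4-5 weeks later on a 0-9 scale compared with control plants.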

[3] = system: ECHINOCHLOA CRUS-GALLI, (L) BEAU; assay: Postemergence herbicidal evaluation, ECHCG (Barnyardgrass); set-up: key to ECHCG rating / Herbicidal effect rating, ECHCG / ECHCG: 0-9 visual rating scale vs untreated control
How it was run: as §1

[4] = system: ORYZA SATIVA, L. TEBONNET; assay: Rice tolerance to post-transplant applications under flooded paddy conditions, ORYSAT (Rice, Tebonnet); settings: for Herbicidal effect rating, ORYSAT: post-transplant rice, 3-4 weeks after treatment; for ORYSAT: post-transplanted rice
How it was run: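 Two ten-day-old Tebonnet rice seedlings were transplanted into silt loam and kept flooded 1.5 to 3 cm deep. Three days after transplanting, the flood surface received the compound in aqueous/acetone 50/50 v/v at about 0.5, 0.25, 0.125 or 0.063 kg/ha. Injury was rated visually on a 0-9 scale versus control after 3-4 weeks.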

ZEA MAYS L. = assay: Postemergence herbicidal evaluation, ZEAMX (Corn, Field);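 further: higher means more injury with 8 approaching complete kill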
How it was run: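 Corn seedlings were raised in jiffy flats for roughly two weeks, then sprayed postemergence with the test material dispersed in 50/50 acetone/water containing 0.5% TWEEN®20 surfactant, using a nozzle at 40 psi. Plants were kept on greenhouse benches under standard care and visually rated on a 0-9 scale four to five weeks after treatment.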

[5] = system: ABUTILON THEOPHRASTI, MEDIC.; assay: Postemergence herbicidal evaluation, ABUTH (Velvetleaf); settings: for ABUTH, herbicide rating (0-9): rated four to five weeks after treatment, averaged
How it was run: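 Velvetleaf (Abutilon theophrasti) seedlings were raised in jiffy flats for about two weeks and then sprayed postemergence. The test compound was dispersed in a 50/50 acetone/water mixture containing 0.5% TWEEN®20 and applied through a nozzle operating at 40 psi. Plants were kept on greenhouse benches and rated 0-9 four to five weeks after treatment.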

[6] = system: TRITICUM AESTIVUM, CV. APOLLO; assay: Postemergence herbicidal evaluation, TRZAWO (Wheat, Winter, CV. APOLLO); settings: for TRZAWO, herbicide rating (0-9): crop, rated four to five weeks after treatment, averaged
How it was run: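 Wheat seedlings, raised in jiffy flats for roughly two weeks, were sprayed postemergence with test compound dispersed in a 50/50 acetone/water mixture containing 0.5% TWEEN®20 surfactant, delivered through a nozzle at 40 psi. Plants were then kept on greenhouse benches under conventional care. Four to five weeks after treatment they were rated visually on a 0-9 scale against an untreated control, and ratings from repeated tests were averaged.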

CHENOPODIUM ALBUM, L. [7] = assay: Postemergence herbicidal evaluation, CHEAL (Lambsquarters, Common);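 further: higher means more injury with 8 approaching complete kill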
How it was run: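 Seedlings of common lambsquarters (Chenopodium album) were raised in jiffy flats for roughly two weeks, then sprayed postemergence through a nozzle at 40 psi with test compound dispersed in 50/50 acetone/water containing 0.5% TWEEN®20 surfactant. Plants were kept on greenhouse benches under standard care and rated visually on a 0-9 scale versus controls.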

GALIUM APARINE = assay: Postemergence herbicidal evaluation, GALAP (Galium); set-up: key to GALAP rating / Herbicidal effect rating, GALAP / GALAP: 0-9 visual rating scale vs untreated control; settings: for GALAP, herbicide rating (0-9): rated four to five weeks after treatment, averaged
How it was run: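 Galium (GALAP) seedlings were raised in jiffy flats for about two weeks, then sprayed with test compounds dispersed in 50/50 acetone/water containing 0.5% TWEEN®20, delivered through a nozzle at 40 psi. Plants were kept on greenhouse benches and visually rated 0-9 against a control four to five weeks later; repeat tests were averaged.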

[8] = system: AMBROSIA ARTEMISIIFOLIA, L.; assay: Postemergence herbicidal evaluation, AMBEL (Ragweed, Common); settings: for AMBEL, herbicide rating (0-9): rated four to five weeks after treatment, averaged
How it was run: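 Common ragweed (Ambrosia artemisiifolia) seedlings were raised in jiffy flats for roughly two weeks, then sprayed postemergence through a nozzle at 40 psi with the test compound dispersed in 50/50 acetone/water carrying 0.5% TWEEN®20. The plants were kept on greenhouse benches under conventional care. Four to five weeks later, injury was rated visually on a 0-9 scale, and repeat tests were averaged.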

COC(=O)Cn1c(=O)n(C)c(=O)n(-c2cc(Oc3c(F)cc(C(F)(F)F)cc3Cl)ccc2[N+](=O)[O-])c1=O [Compound 16, Methyl 3-{5-[(2-chloro-α,α,α,6-tetrafluoro-p-tolyl)oxy]-2-nitrophenyl}tetrahydro-5-methyl-2,4,6-trioxo-s-triazine-1(2H)-acetate]
SETVI ([1]; Rate 0.008 kg/ha): 0.0
SETVI ([1]; Rate 0.016 kg/ha): 0.0
SETVI ([1]; Rate 0.031 kg/ha): 0.0
SETVI ([1]; Rate 0.063 kg/ha): 0.8
SETVI ([1]; Rate 0.125 kg/ha): 1.3
IPOSS (IPOMOEA SPP.; Rate 0.008 kg/ha): 6.0
IPOSS (IPOMOEA SPP.; Rate 0.016 kg/ha): 7.0
IPOSS (IPOMOEA SPP.; Rate 0.031 kg/ha): 7.0
IPOSS (IPOMOEA SPP.; Rate 0.063 kg/ha): 8.3
IPOSS (IPOMOEA SPP.; Rate 0.125 kg/ha): 9.0
IPOSS, herbicide rating (0-9) (IPOMOEA SPP.; Rate 0.125 kg/ha): 9.0
IPOSS, herbicide rating (0-9) (IPOMOEA SPP.; Rate 0.250 kg/ha): 9.0
IPOSS, herbicide rating (0-9) (IPOMOEA SPP.; Rate 0.500 kg/ha): 9.0
CHEAL (CHENOPODIUM ALBUM, L. [2]; Rate 0.031 kg/ha): 9.0
CHEAL (CHENOPODIUM ALBUM, L. [2]; Rate 0.063 kg/ha): 9.0
CHEAL (CHENOPODIUM ALBUM, L. [2]; Rate 0.125 kg/ha): 9.0
CHEAL herbicidal rating (CHENOPODIUM ALBUM, L. [2]; Rate 0.125 kg/ha): 9.0
CHEAL (CHENOPODIUM ALBUM, L. [2]; Rate 0.250 kg/ha): 9.0
CHEAL herbicidal rating (CHENOPODIUM ALBUM, L. [2]; Rate 0.250 kg/ha): 9.0
CHEAL herbicidal rating (CHENOPODIUM ALBUM, L. [2]; Rate 0.500 kg/ha): 9.0
ECHCG ([3]; Rate 0.008 kg/ha): 0.0
ECHCG ([3]; Rate 0.016 kg/ha): 0.5
ECHCG ([3]; Rate 0.031 kg/ha): 0.7
ECHCG ([3]; Rate 0.063 kg/ha): 1.7
ECHCG ([3]; Rate 0.125 kg/ha): 3.7
Herbicidal effect rating, ORYSAT ([4]; 0.063 kg/ha): 3.5
Herbicidal effect rating, ORYSAT ([4]; 0.125 kg/ha): 5.0
Herbicidal effect rating, ORYSAT ([4]; 0.250 kg/ha): 7.0
Herbicidal effect rating, ORYSAT ([4]; 0.500 kg/ha): 6.0
ORYSAT ([4]; Rate 0.031 kg/ha): 3.0
ORYSAT ([4]; Rate 0.063 kg/ha): 3.5
ORYSAT ([4]; Rate 0.125 kg/ha): 5.0
ORYSAT ([4]; Rate 0.250 kg/ha): 7.0
ZEAMX (ZEA MAYS L.; Rate 0.008 kg/ha): 2.0
ZEAMX (ZEA MAYS L.; Rate 0.016 kg/ha): 2.4
ZEAMX (ZEA MAYS L.; Rate 0.031 kg/ha): 3.0
ZEAMX (ZEA MAYS L.; Rate 0.063 kg/ha): 3.4
ZEAMX (ZEA MAYS L.; Rate 0.125 kg/ha): 4.2
ABUTH ([5]; Rate 0.008 kg/ha): 5.5
ABUTH ([5]; Rate 0.016 kg/ha): 8.3
ABUTH ([5]; Rate 0.031 kg/ha): 8.0
ABUTH ([5]; Rate 0.063 kg/ha): 8.3
ABUTH ([5]; Rate 0.125 kg/ha): 9.0
ABUTH, herbicide rating (0-9) ([5]; Rate 0.125 kg/ha): 9.0
ABUTH, herbicide rating (0-9) ([5]; Rate 0.250 kg/ha): 9.0
ABUTH, herbicide rating (0-9) ([5]; Rate 0.500 kg/ha): 9.0
TRZAWO ([6]; Rate 0.008 kg/ha): 4.5
TRZAWO ([6]; Rate 0.016 kg/ha): 4.7
TRZAWO ([6]; Rate 0.031 kg/ha): 6.4
TRZAWO ([6]; Rate 0.063 kg/ha): 7.4
TRZAWO ([6]; Rate 0.125 kg/ha): 8.4
TRZAWO, herbicide rating (0-9) ([6]; Rate 0.125 kg/ha): 8.4
TRZAWO, herbicide rating (0-9) ([6]; Rate 0.250 kg/ha): 8.4
TRZAWO, herbicide rating (0-9) ([6]; Rate 0.500 kg/ha): 8.4
CHEAL (CHENOPODIUM ALBUM, L. [7]; Rate 0.008 kg/ha): 0.0
CHEAL (CHENOPODIUM ALBUM, L. [7]; Rate 0.016 kg/ha): 1.5
CHEAL (CHENOPODIUM ALBUM, L. [7]; Rate 0.031 kg/ha): 3.0
CHEAL (CHENOPODIUM ALBUM, L. [7]; Rate 0.063 kg/ha): 3.7
CHEAL (CHENOPODIUM ALBUM, L. [7]; Rate 0.125 kg/ha): 6.5
GALAP (GALIUM APARINE; Rate 0.008 kg/ha): 4.5
GALAP (GALIUM APARINE; Rate 0.016 kg/ha): 6.0
GALAP (GALIUM APARINE; Rate 0.031 kg/ha): 8.0
GALAP (GALIUM APARINE; Rate 0.063 kg/ha): 9.0
GALAP (GALIUM APARINE; Rate 0.125 kg/ha): 9.0
GALAP, herbicide rating (0-9) (GALIUM APARINE; Rate 0.125 kg/ha): 9.0
GALAP, herbicide rating (0-9) (GALIUM APARINE; Rate 0.250 kg/ha): 9.0
GALAP, herbicide rating (0-9) (GALIUM APARINE; Rate 0.500 kg/ha): 9.0
AMBEL ([8]; Rate 0.008 kg/ha): 7.0
AMBEL ([8]; Rate 0.016 kg/ha): 9.0
AMBEL ([8]; Rate 0.031 kg/ha): 9.0
AMBEL ([8]; Rate 0.063 kg/ha): 9.0
AMBEL ([8]; Rate 0.125 kg/ha): 9.0
AMBEL, herbicide rating (0-9) ([8]; Rate 0.125 kg/ha): 9.0
AMBEL, herbicide rating (0-9) ([8]; Rate 0.250 kg/ha): 9.0
AMBEL, herbicide rating (0-9) ([8]; Rate 0.500 kg/ha): 9.0
